Read-outs that look alike come from different tables or passages of the source. Bounds are passed on as bounds.

In one experiment the test system is Daudi cells. In words: Inhibition of human Daudi lymphoma cell proliferation (Cell-Titer Glo). The format is cell-based. Conditions: 3 days incubation, read-out: Anti-Proliferative Activity Against Daudi cells IC50. In outline: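 Daudi cells in RPMI 1640 with 10% FBS were seeded and grown 24 h, then exposed for 3 days (37 °C, 5% CO2) to 10-point 3-fold serial dilutions at 0.25% final DMSO. Viability was read by CellTiter-Glo ATP luminescence, and IC50 was fitted from % inhibition against top/bottom controls.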

The test system of a further experiment is WI-38 cells. In words: Inhibition of human WI-38 embryonic lung cell proliferation (Cell-Titer Glo). The format is cell-based. Particulars: 3 days incubation, read-out: Anti-Proliferative Activity Against WI-38 cells IC50. The method, then:
Introduction of the experimental principle: After the RAD51 inhibitor to be tested was co-incubated with human embryonic lung cells for a period of time, the influence of the test compound on cell proliferation was measured by a method for counting cell proliferation based on the quantitative measurement of intracellular ATP content.
Materials and Cells: WI-38 cells were purchased from ATCC; fetal bovine serum, 1640 medium and penicillin-streptomycin were purchased from Gibco Inc. (U.S.), 96-well plates were purchased from Corning Inc. (U.S.), and Cell-Titer Glo reagent was purchased from Promega Corporation (U.S.).
Cell culture: WI-38 cells were cultured in an EMEM culture medium containing 10% fetal bovine serum and 1% penicillin-streptomycin at 37° C. in an atmosphere containing 5% CO2. Cells in logarithmic growth phase could be used for experiments.
Assay of cell proliferation and viability: Cell-Titer Glo reagent was used to measure the inhibitory activities of the compounds on the proliferation of WI-38 cell strain. The concentration of cells was adjusted, and the cells were seeded in a 96-well plate and cultured at 37° C. in an atmosphere containing 5% CO2 for 24 hours. The powder of the compound was dissolved in 100% DMSO to form a 10 mM solution. 10 μl of the solution of the compound was aspirated and transferred into a 96-well compound plate containing 20 μl of DMSO solution in each well for 3-fold dilution and was then formulated to 10 serial dilutions. Thereafter, 2 μl of the solution of the compound was aspirated from the corresponding well and added correspondingly into a 96-well intermediate compound dilution plate containing 78 μl of complete culture medium in each well. The resultant was mixed well, and the plate was centrifuged at 1000 rpm for 1 minute. Finally, 10 μl of the solution of the compound was aspirated from the corresponding well of the 96-well intermediate compound dilution plate, and transferred into the corresponding well of the cell culture plate containing 90 μl of complete culture medium. The final concentration of DMSO was 0.25%. After the addition of the compound, the cells were continued to be incubated for 3 days at 37° C. in an atmosphere containing 5% CO2. Cell-Titer Glo reagent was added to measure cell viability.
% Compound inhibition was calculated and IC50 of the compound was fitted;
% Compound inhibition=1−100%×(Signal−Bottom)/(Top−Bottom)

`CC(C)OC(=O)Nc1ccc(-c2cnc(C34CC(NC(=O)OC(C)C)(C3)C4)s2)c(S(=O)(=O)NC(C)(C)C)c1` [Example 7, isopropyl (3-(5-(4-(isopropoxycarbonyl)amino-2-(N-(tert-butyl)sulfamoyl)phenyl)thiazol-2-yl)bicyclo[1.1.1]pent-1-yl)carbamate]: the IC50 (commonly the point on the concentration scale where inhibition reaches its midpoint) in the experiment with Daudi cells (Homo sapiens, 72 h) is 2590 nM; in the experiment with WI-38 cells (Homo sapiens, 72 h) it was > 25000 nM.

As to `CC(C)OC(=O)Nc1ccc(-c2nnc([C@H]3CC[C@H](NC(=O)OC(C)C)CC3)s2)c(S(=O)(=O)NC(C)(C)C)c1` [Example 5, isopropyl trans-N-[3-(tert-butylsulfamoyl)-4-[5-[4-(isopropoxycarbonylamino)cyclohexyl]-1,3,4-thiadiazol-2-yl]phenyl]carbamate], the IC50 in the experiment with Daudi cells (Homo sapiens, 72 h) is 1160 nM; in the experiment with WI-38 cells (Homo sapiens, 72 h), > 25000 nM.

For `CC(C)OC(=O)N[C@H]1CC[C@H](c2ncc(-c3ccc(Nc4cnn(C)c4)cc3S(=N)(=O)C3CC3)s2)CC1` (stereo partly drawn) [Example 69, isopropyl trans-(4-(5-(2-(cyclopropanesulfonimidoyl)-4-((1-methyl-1H-pyrazol-4-yl)amino)phenyl]thiazol-2-yl)cyclohexyl)carbamate], the IC50 in the experiment with Daudi cells (Homo sapiens, 72 h) is 30 nM; in the experiment with WI-38 cells (Homo sapiens, 72 h), > 25000 nM.

With `Cc1cc(Nc2ccc(-c3cnc([C@H]4CC[C@H](NC(=O)OC(C)C)CC4)s3)c(S(=O)(=O)C3CN(C)C3)c2)n[nH]1` [Example 114, isopropyl trans-(4-(5-(4-((5-methyl-1H-pyrazol-3-yl)amino)-2-((1-methylazetidin-3-yl)sulfonyl)phenyl)thiazol-2-yl)cyclohexyl)carbamate], the IC50 was 14 nM with Daudi cells (Homo sapiens, 72 h) and > 25000 nM in the experiment on WI-38 cells (Homo sapiens, 72 h).

As for `CC(C)OC(=O)NC1CCC(c2ncc(-c3ccc(N/C(=N/C#N)NCc4ccccc4)cc3S(=O)(=O)NC(C)(C)C)s2)CC1` (stereo not drawn) [Example 14, isopropyl trans-N-[4-[5-[4-[[(E)-N-benzyl-N′-cyanocarbamoylamino]amino]-2-(tert-butylsulfamoyl)phenyl]thiazol-2-yl]cyclohexyl]carbamate], the IC50 is 450 nM with Daudi cells (Homo sapiens, 72 h) and > 25000 nM in the experiment with WI-38 cells (Homo sapiens, 72 h).

As to `CC(C)OC(=O)N[C@H]1CC[C@H](c2ncc(-c3ccc(Nc4cc(C5CC5)[nH]n4)cc3S(=O)(=O)C(C)C)s2)CC1` [Example 45, isopropyl trans-N-[4-[5-[4-[(5-cyclopropyl-1H-pyrazol-3-yl)amino]-2-isopropylsulfonyl-phenyl]thiazol-2-yl]cyclohexyl]carbamate], the IC50 with Daudi cells (Homo sapiens, 72 h) was 62 nM; in the experiment on WI-38 cells (Homo sapiens, 72 h) it was > 25000 nM.

For the compound `C=CC(=O)N=S(=O)(c1cc(NC(=O)OC(C)C)ccc1-c1cnc([C@H]2CC[C@H](NC(=O)OC(C)C)CC2)s1)C(C)C` (relative stereo) [Example 4, isopropyl trans-N-[4-[2-[4-(isopropoxycarbonylamino)cyclohexyl]thiazol-5-yl]-3-(isopropyl-N-prop-2-enoyl-sulfonimidoyl)phenyl]carbamate], the IC50 in the experiment with Daudi cells (Homo sapiens, 72 h) is 1010 nM; in the experiment on WI-38 cells (Homo sapiens, 72 h), 7220 nM.

`CC(C)OC(=O)N[C@H]1CC[C@H](c2ncc(-c3ccc(NC(=O)N4CCc5ccccc5C4)cc3S(=O)(=O)NC(C)(C)C)s2)CC1` [Example 12, isopropyl trans-N-[4-[5-[2-(tert-butylsulfamoyl)-4-(3,4-dihydro-1H-isoquinoline-2-carbonylamino)phenyl]thiazol-2-yl]cyclohexyl]carbamate]: the IC50 in the experiment with Daudi cells (Homo sapiens, 72 h) is 20 nM; with WI-38 cells (Homo sapiens, 72 h) it was > 25000 nM.

For the compound `CC(C)OC(=O)N[C@H]1CC[C@H](c2ncc(-c3ccc(Nc4cnn(CCF)c4)cc3S(=N)(=O)C3CCC3)s2)CC1` (stereo partly shown) [Example 102], the IC50 in the experiment with Daudi cells (Homo sapiens, 72 h) was 17 nM; with WI-38 cells (Homo sapiens, 72 h), > 25000 nM.

Take `Cc1cc(Nc2ccc(-c3cnc([C@H]4CC[C@H](NC(=O)OC(C)C)CC4)s3)c(S(=N)(=O)C3CCC3)c2)n[nH]1` (stereo partly drawn) [Example 101, isopropyl trans-(4-(5-(2-(cyclobutanesulfonimidoyl)-4-((5-methyl-1H-pyrazol-3-yl)amino)phenyl]thiazol-2-yl)cyclohexyl)carbamate]: the IC50 in the experiment on Daudi cells (Homo sapiens, 72 h) was 28 nM; in the experiment with WI-38 cells (Homo sapiens, 72 h), > 25000 nM.

Regarding `Cc1cc(Nc2ccc(-c3cnc([C@H]4CC[C@H](NC(=O)OC(C)C)CC4)s3)c(S(=O)(=O)C3CCC3)c2)n[nH]1` [Example 88, isopropyl trans-(4-(5-(2-(cyclobutylsulfonyl)-4-((5-methyl-1H-pyrazol-3-yl)amino)phenyl)thiazol-2-yl)cyclohexyl)carbamate], the IC50 was 4 nM with Daudi cells (Homo sapiens, 72 h) and > 25000 nM with WI-38 cells (Homo sapiens, 72 h).

Consider `Cc1cc(Nc2ccc(-c3cnc([C@H]4CC[C@H](NC(=O)OC(C)C)CC4)s3)c(S(=O)(=O)C3CCOC3)c2)n[nH]1` (stereo partly drawn) [Example 115, isopropyl trans-(4-(5-(4-((5-methyl-1H-pyrazol-3-yl)amino)-2-((tetrahydrofuran-3-yl)sulfonyl)phenyl)thiazol-2-yl)cyclohexyl)carbamate], for which the IC50 in the experiment with Daudi cells (Homo sapiens, 72 h) is 16 nM; in the experiment on WI-38 cells (Homo sapiens, 72 h) it was > 25000 nM.

Turning to `CC(C)OC(=O)Nc1ccc(-c2cnc(N3CC4C(C3)C4NC(=O)OC(C)C)s2)c(S(=O)(=O)NC(C)(C)C)c1` (stereo not drawn) [Example 9, isopropyl endo-N-[3-(tert-butylsulfamoyl)-4-[2-[6-(isopropoxycarbonylamino)-3-azabicyclo[3.1.0]hex-3-yl]thiazol-5-yl]phenyl]carbamate], the IC50 with Daudi cells is 2060 nM; with WI-38 cells, > 25000 nM.

Consider `CC(C)OC(=O)N[C@H]1CC[C@H](c2ncc(-c3ccc(Nc4cn(C)nn4)cc3P3(=O)CCCC3)s2)CC1` [Example 53, isopropyl trans-N-[4-[5-[4-[(1-methyltriazol-4-yl)amino]-2-(1-oxidophospholan-1-yl)phenyl]thiazol-2-yl]cyclohexyl]carbamate], for which the IC50 was 100 nM in the experiment on Daudi cells (Homo sapiens, 72 h) and > 25000 nM in the experiment with WI-38 cells (Homo sapiens, 72 h).

Turning to `CC(C)OC(=O)N[C@H]1CC[C@H](c2ncc(-c3ccc(Nc4cc[nH]n4)cc3S(=O)(=O)NC(C)(C)C)s2)CC1` [Example 22, isopropyl trans-(4-(5-(4-((1H-pyrazol-3-yl)amino)-2-(N-(tert-butyl)sulfamoyl)phenyl)thiazol-2-yl)cyclohexyl)carbamate], the IC50 with Daudi cells (Homo sapiens, 72 h) amounted to 35 nM; in the experiment on WI-38 cells (Homo sapiens, 72 h) it was 23300 nM.

Take `CC(C)OC(=O)NC1CCC(c2ncc(-c3ccc(NC(=O)C4Cc5ccccc5CN4)cc3S(=O)(=O)NC(C)(C)C)s2)CC1` (stereo not drawn) [Example 13, isopropyl trans-N-[4-[5-[2-(tert-butylsulfamoyl)-4-(1,2,3,4-tetrahydroisoquinoline-3-carbonylamino)phenyl]thiazol-2-yl]cyclohexyl]carbamate]: the IC50 is 410 nM in the experiment with Daudi cells (Homo sapiens, 72 h) and > 25000 nM with WI-38 cells (Homo sapiens, 72 h).

Consider `Cc1cc(Nc2ccc(-c3cnc([C@H]4CC[C@H](NC(=O)OC(C)C)CC4)s3)c(S(=O)(=O)NC(C)(C)C)c2)n[nH]1` [Example 28, isopropyl trans-(4-(5-(2-(N-(tert-butyl)sulfamoyl)-4-((5-methyl-1H-pyrazol-3-yl)amino)phenyl)thiazol-2-yl)cyclohexyl)carbamate], for which the IC50 with Daudi cells (Homo sapiens, 72 h) is 48 nM; in the experiment on WI-38 cells (Homo sapiens, 72 h), 15000 nM.

On to `CC(C)OC(=O)Nc1ccc(-c2cnc([C@H]3CC[C@H](NC(=O)OC(C)C)CC3)s2)c(NS(=O)(=O)C(C)(C)C)c1` [Example 19, isopropyl trans-N-[3-(tert-butylsulfonylamino)-4-[2-[4-(isopropoxycarbonylamino)cyclohexyl]thiazol-5-yl]phenyl]carbamate], for which the IC50 was 960 nM in the experiment with Daudi cells (Homo sapiens, 72 h) and > 25000 nM with WI-38 cells (Homo sapiens, 72 h).

For the compound `CC(C)OC(=O)N[C@H]1CC[C@H](c2ncc(-c3ccc(Nc4cnn(CCF)c4)cc3P3(=O)CCC3)s2)CC1` [Example 104, isopropyl trans-(4-(5-(4-((1-(2-fluoroethyl)-1H-pyrazol-4-yl)amino)-2-(1-oxophosphetan-1-yl)phenyl)thiazol-2-yl)cyclohexyl)carbamate], the IC50 was 23 nM in the experiment with Daudi cells (Homo sapiens, 72 h) and > 25000 nM in the experiment with WI-38 cells (Homo sapiens, 72 h).

`CC(C)OC(=O)N[C@H]1CC[C@H](c2ncc(-c3ccc(NC(=O)COc4ccccc4)cc3S(=O)(=O)NC(C)(C)C)s2)CC1` [Example 15, isopropyl trans-N-[4-[5-[2-(tert-butylsulfamoyl)-4-[(2-phenoxyacetyl)amino]phenyl]thiazol-2-yl]cyclohexyl]carbamate]: the IC50 is 280 nM in the experiment with Daudi cells (Homo sapiens, 72 h) and > 25000 nM in the experiment with WI-38 cells (Homo sapiens, 72 h).
